Laboratory results taken from ChEMBL document CHEMBL3044879, “Design, synthesis, and preliminary in vitro and in vivo pharmacological evaluation of 4-{4-[2-(4-(2-substitutedquinoxalin-3-yl)piperazin-1-yl)ethyl]phenyl}thiazoles as atypical antipsychotic agents” (Med Chem Res, 2013).
Calls of active or inactive are those of the source. The calls are words filed in the database; no cut-off is given here.

Tests used:
Mus musculus [1] = experiment: Antagonist activity at mesolimbic dopaminergic D2 receptor in Swiss albino Mus musculus (mouse) assessed as inhibition of apomorphine-induced cage climbing behavior at 10 mg/kg, ip administered 1 hr prior to apomorphine challenge measured after 20 min relative to vehicle-treated control; type: functional; conditions: route intraperitoneal
Mus musculus [2] = experiment: Antagonist activity at mesolimbic dopaminergic D2 receptor in Swiss albino Mus musculus (mouse) assessed as inhibition of apomorphine-induced cage climbing behavior at 10 mg/kg, ip administered 1 hr prior to apomorphine challenge measured after 10 min relative to vehicle-treated control; type: functional; conditions: route intraperitoneal
Mus musculus [3] = experiment: Antagonist activity at nigrostriatal dopaminergic D2 receptor in Swiss albino Mus musculus (mouse) assessed as maximum average cataleptic time at 10 mg/kg, ip after 1 to 5 hr relative to vehicle-treated control; type: organism-based; design: dose 10 mg/kg, route intraperitoneal; conditions: in vivo
Mus musculus [4] = experiment: Antagonist activity at central serotonergic 5-HT2A receptor in Swiss albino Mus musculus (mouse) assessed as inhibition of quipazine meleate-induced head twiches at 10 mg/kg, ip administered 1 hr prior to quipazine meleate challenge measured after 30 to 40 min relative to vehicle-treated control; type: functional; conditions: route intraperitoneal
Mus musculus [5] = experiment: Antagonist activity at mesolimbic dopaminergic D2 receptor in Swiss albino Mus musculus (mouse) assessed as inhibition of apomorphine-induced cage climbing behavior at 10 mg/kg, ip administered 1 hr prior to apomorphine challenge measured after 30 min relative to vehicle-treated control; type: functional; conditions: route intraperitoneal
Mus musculus [6] = experiment: Selectivity ratio of inhibition of 5-HT2A receptor in Swiss albino Mus musculus (mouse) to inhibition of dopaminergic D2 receptor in Swiss albino Mus musculus (mouse) at 10 mg/kg, ip; type: functional; conditions: route intraperitoneal
Mus musculus [7] = experiment: In vivo inhibition of dopaminergic D2 receptor in Swiss albino Mus musculus (mouse) at 10 mg/kg, ip relative to vehicle-treated control; type: functional; conditions: route intraperitoneal
Mus musculus [8] = experiment: In vivo inhibition of 5-HT2A receptor in Swiss albino Mus musculus (mouse) at 10 mg/kg, ip relative to vehicle-treated control; type: functional; conditions: route intraperitoneal
[9] = molecular target: D(2) dopamine receptor (Rattus norvegicus) (UniProt P61169); experiment: Displacement of [3H]spiperone from dopaminergic D2 receptor in Rattus norvegicus (rat) straitum membrane homogenates up to 1 uM after 60 min by liquid scintillation counting analysis
[10] = molecular target: 5-hydroxytryptamine receptor 2A (Rattus norvegicus) (UniProt P14842); experiment: Displacement of [3H]ketanserin from 5-HT2A receptor in Rattus norvegicus (rat) cortex membrane homogenates up to 1 uM after 90 min by liquid scintillation counting analysis
[11] = molecular target: 5-hydroxytryptamine receptor 2A (Rattus norvegicus) (UniProt P14842); experiment: Displacement of [3H]ketanserin from 5-HT2A receptor in Rattus norvegicus (rat) cortex membrane homogenates at 10 uM after 90 min by liquid scintillation counting analysis
[12] = molecular target: D(2) dopamine receptor (Rattus norvegicus) (UniProt P61169); experiment: Displacement of [3H]spiperone from D2 receptor in Rattus norvegicus (rat) straitum membrane homogenates at 100 uM after 60 min by liquid scintillation counting analysis

Chain of D(2) dopamine receptor (Rattus norvegicus) (P61169 whole entry): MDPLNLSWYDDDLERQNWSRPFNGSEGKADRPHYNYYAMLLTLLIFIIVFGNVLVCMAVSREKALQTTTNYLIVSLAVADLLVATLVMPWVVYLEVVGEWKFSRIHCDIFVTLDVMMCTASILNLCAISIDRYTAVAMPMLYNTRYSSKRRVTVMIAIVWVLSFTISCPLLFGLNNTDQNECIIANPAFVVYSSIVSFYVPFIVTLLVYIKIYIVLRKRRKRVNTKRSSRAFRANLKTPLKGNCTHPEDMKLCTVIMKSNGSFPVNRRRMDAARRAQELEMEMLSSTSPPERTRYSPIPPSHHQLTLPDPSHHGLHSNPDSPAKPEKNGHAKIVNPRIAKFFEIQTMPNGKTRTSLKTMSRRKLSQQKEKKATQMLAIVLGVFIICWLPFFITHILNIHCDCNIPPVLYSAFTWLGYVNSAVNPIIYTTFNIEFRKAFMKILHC
Chain of 5-hydroxytryptamine receptor 2A (Rattus norvegicus) (P14842 whole entry): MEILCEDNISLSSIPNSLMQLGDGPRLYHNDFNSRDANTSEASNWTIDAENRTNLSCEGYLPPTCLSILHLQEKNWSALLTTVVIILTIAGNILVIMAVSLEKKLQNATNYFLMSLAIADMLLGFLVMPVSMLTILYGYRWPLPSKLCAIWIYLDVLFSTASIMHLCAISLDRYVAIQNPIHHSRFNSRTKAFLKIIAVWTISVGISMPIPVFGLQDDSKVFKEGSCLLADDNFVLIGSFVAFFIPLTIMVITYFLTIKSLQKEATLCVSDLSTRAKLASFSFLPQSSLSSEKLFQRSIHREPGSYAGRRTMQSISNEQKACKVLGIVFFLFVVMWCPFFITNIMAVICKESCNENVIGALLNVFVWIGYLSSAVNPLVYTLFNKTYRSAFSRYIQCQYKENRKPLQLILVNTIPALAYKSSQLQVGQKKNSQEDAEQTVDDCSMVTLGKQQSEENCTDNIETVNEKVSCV

Row | Compound | inhibition in vivo at 10 mg/kg (Mus musculus [1]) [%] | inhibition in vivo at 10 mg/kg (Mus musculus [2]) [%] | Time (Mus musculus [3]) [s] | inhibition in vivo at 10 mg/kg (Mus musculus [4]) [%] | inhibition in vivo at 10 mg/kg (Mus musculus [5]) [%] | Selectivity ratio (Mus musculus [6]) | Imax (Mus musculus [7]) [%] | inhibition in vivo at 10 mg/kg (Mus musculus [8]) [%] | inhibition [9] | inhibition [10] | inhibition [11] [%] | inhibition [12] [%]
1 | Cc1nc(-c2ccc(CCN3CCN(c4cnc5ccccc5n4)CC3)cc2)c(C)s1 | 50 | 25 | 9.32 | 32 | 70 | 0.4571 | 70 | 32 | inactive | inactive | – | –
2 | CNc1nc(-c2ccc(CCN3CCN(c4nc5ccccc5nc4OC)CC3)cc2)c(C)s1 | 50 | 60 | 3.12 | 80 | 70 | 1.143 | 70 | 80 | inactive | inactive | – | –
3 | CNc1nc(-c2ccc(CCN3CCN(c4cnc5ccccc5n4)CC3)cc2)c(C)s1 | 75 | 60 | 3.88 | 55 | 65 | 0.7333 | 75 | 55 | inactive | inactive | – | –
4 | COc1nc2ccccc2nc1N1CCN(CCc2ccc(-c3nc(N)sc3C)cc2)CC1 | 80 | 65 | 10.78 | 60 | 65 | 0.75 | 80 | 60 | inactive | inactive | – | –
5 | Cc1sc(N)nc1-c1ccc(CCN2CCN(c3cnc4ccccc4n3)CC2)cc1 | 80 | 95 | 2.64 | 31 | 60 | 0.3263 | 95 | 31 | inactive | inactive | 58 | 0
6 | Oc1nc(-c2ccc(CCN3CCN(c4cnc5ccccc5n4)CC3)cc2)cs1 | 65 | 60 | 3.19 | 80 | 65 | 1.231 | 65 | 80 | inactive | inactive | 22 | 0
7 | COc1nc2ccccc2nc1N1CCN(CCc2ccc(-c3csc(O)n3)cc2)CC1 | 60 | 65 | 7.9 | 67 | 60 | 1.031 | 65 | 67 | inactive | inactive | 28 | 0
8 | Nc1nc(-c2ccc(CCN3CCN(c4nc5ccccc5nc4Cl)CC3)cc2)cs1 | 60 | 65 | 18.24 | 79 | 70 | 1.129 | 70 | 79 | inactive | inactive | 4 | 0
9 | CNc1nc(-c2ccc(CCN3CCN(c4nc5ccccc5nc4Cl)CC3)cc2)cs1 | 80 | 60 | 3.96 | 41 | 80 | 0.5125 | 80 | 41 | inactive | inactive | 14 | 0
10 | Oc1nc(-c2ccc(CCN3CCN(c4nc5ccccc5nc4Cl)CC3)cc2)cs1 | 60 | 60 | 28.25 | 58 | 50 | 0.9667 | 60 | 58 | inactive | inactive | 0 | 0
11 | Cc1sc(N)nc1-c1ccc(CCN2CCN(c3nc4ccccc4nc3Cl)CC2)cc1 | 80 | 80 | 23.5 | 86 | 65 | 1.075 | 80 | 86 | inactive | inactive | 0 | 0
12 | CNc1nc(-c2ccc(CCN3CCN(c4nc5ccccc5nc4Cl)CC3)cc2)c(C)s1 | 95 | 95 | 8.12 | 81 | 70 | 0.8526 | 95 | 81 | inactive | inactive | 31 | 0
13 | Cc1nc(-c2ccc(CCN3CCN(c4nc5ccccc5nc4Cl)CC3)cc2)cs1 | 65 | 80 | 3.25 | 62 | 75 | 0.775 | 80 | 62 | inactive | inactive | 30 | 0
14 | COc1nc2ccccc2nc1N1CCN(CCc2ccc(-c3nc(C)sc3C)cc2)CC1 | 70 | 85 | 11.25 | 65 | 65 | 0.7647 | 85 | 65 | inactive | inactive | – | –
15 | CNc1nc(-c2ccc(CCN3CCN(c4cnc5ccccc5n4)CC3)cc2)cs1 | 50 | 25 | 9.32 | 36 | 60 | 0.6 | 60 | 36 | inactive | inactive | 57 | 0
16 | Cc1nc(-c2ccc(CCN3CCN(c4nc5ccccc5nc4Cl)CC3)cc2)c(C)s1 | 60 | 60 | 9.25 | 51 | 80 | 0.6375 | 80 | 51 | inactive | inactive | 31 | 0
